Experiment: HLB value of the surfactant
Type: physicochemical
Conditions: of the 30% anionic surfactant used in the composition
Excerpt: The term “Hydrophilic-Lipophilic Balance” or “HLB,” refers to an empirical expression for the relationship of the hydrophilic and hydrophobic groups of an emulsifier. This term is well known to those skilled in the art. See, e.g., “The HLB system.

| Molecule | HLB VALUE |
| --- | --- |
| CCCCCCCCCCCCOS(=O)(=O)[O-].[Na+] [SODIUM LAURYL SULFATE] | 40.1 |
| DECYL GLUCOSIDE (APGS) | 13 |
| SODIUM COCOYL GLYCINATE | 14 |
| SODIUM LAUROYL SARCOSINATE | 29.8 |
